# According to ChEMBL document CHEMBL1137861, “Novel pyrazinone inhibitors of mast cell tryptase: synthesis and SAR evaluation” (Bioorg Med Chem Lett, 2004):
# How the values were obtained:
# [1] = target: T1, Tryptase beta-1 (Homo sapiens, UniProt Q15661); assay: Inhibitory activity against human Tryptase beta 2 expressed in yeast cells at 5 uM; assay type: cell-based
# [2] = target: T1, Tryptase beta-1; assay: Inhibitory activity against human Tryptase beta 2 expressed in yeast cells at 5 uM; not active; assay type: cell-based
# T1 sequence (Q15661 31-275 limits assumed): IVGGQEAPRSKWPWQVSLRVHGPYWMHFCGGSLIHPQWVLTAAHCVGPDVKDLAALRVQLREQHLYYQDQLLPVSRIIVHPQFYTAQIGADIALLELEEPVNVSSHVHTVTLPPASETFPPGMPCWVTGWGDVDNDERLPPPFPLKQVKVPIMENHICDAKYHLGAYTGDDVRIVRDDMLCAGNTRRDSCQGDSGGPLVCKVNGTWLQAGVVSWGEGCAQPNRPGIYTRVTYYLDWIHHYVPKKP
inhibition [1] [%],inhibition [2] [%],Structure (SMILES)
16,–,Cc1c(Cl)nc(N[C@H]2CC[C@H](N)CC2)c(=O)n1CC(=O)Nc1ccc(CN)cc1
31,–,Cc1c(Cl)nc(N[C@H]2CC[C@H](N)CC2)c(=O)n1CC(=O)Nc1ccc(C(N)=O)cc1
8,–,Cc1c(Cl)nc(N[C@H]2CC[C@H](N)CC2)c(=O)n1CC(=O)NCCc1c[nH]cn1
–,24,Cc1c(Cl)nc(Nc2ccc(F)cc2)c(=O)n1CC(=O)Nc1cccc(CN)c1
7,–,Cc1c(Cl)nc(N[C@H]2CC[C@H](N)CC2)c(=O)n1CC(=O)Nc1cccc(N)c1

# More lines, now with the values behind:
Structure (SMILES),inhibition [1] [%],inhibition [2] [%]
Cc1c(Cl)nc(Nc2cccc(Cl)c2)c(=O)n1CC(=O)Nc1cccc(CN)c1,–,11
Cc1c(Cl)nc(N[C@H]2CC[C@H](N)CC2)c(=O)n1CC(=O)Nc1ccc(N)cc1,29,–
Cc1c(Cl)nc(N[C@H]2CC[C@H](N)CC2)c(=O)n1CC(=O)NC1CCC(N)CC1 (some centres undefined),2,–
Cc1c(Cl)nc(N[C@H]2CC[C@H](N)CC2)c(=O)n1CC(=O)Nc1cccc(C(N)=O)c1,18,–
